ChEMBL document CHEMBL5050844 (2019)

What was measured:
Type in all cases: functional, T cell line
[1] = Induction of anti-CD3/CD28 antibodies-stimulated human T cell activation at 4 uM assessed fold increase in IL-2 secretion measured by ELISA assay
[2] = Induction of anti-CD3/CD28 antibodies-stimulated human T cell activation at 1 uM assessed fold increase in IL-2 secretion measured by ELISA assay
[3] = Induction of anti-CD3/CD28 antibodies-stimulated human T cell activation at 0.3 uM assessed fold increase in IL-2 secretion measured by ELISA assay
[4] = Induction of anti-CD3 antibodies-stimulated human T cell activation at 8 uM assessed fold increase in IL-2 secretion measured by ELISA assay; also: reference of the scale not given here
[5] = Induction of anti-CD3 antibodies-stimulated human T cell activation at 1 uM assessed fold increase in IL-2 secretion measured by ELISA assay; also: reference of the scale not given here
[6] = Induction of anti-CD3/CD28 antibodies-stimulated human T cell activation at 4 uM assessed fold increase in CD25 expression measured by ELISA assay
[7] = Induction of anti-CD3/CD28 antibodies-stimulated human T cell activation at 1 uM assessed fold increase in CD25 expression measured by ELISA assay
[8] = Induction of anti-CD3/CD28 antibodies-stimulated human T cell activation at 0.3 uM assessed fold increase in CD25 expression measured by ELISA assay
[9] = Induction of anti-CD3 antibodies-stimulated human T cell activation at 8 uM assessed fold increase in CD25 expression measured by ELISA assay; also: reference of the scale not given here
[10] = Induction of anti-CD3 antibodies-stimulated human T cell activation at 1 uM assessed fold increase in CD25 expression measured by ELISA assay; also: reference of the scale not given here

| Structure (SMILES) | fold change (FC) [1] | fold change (FC) [2] | fold change (FC) [3] | fold change (FC) [4] | fold change (FC) [5] | fold change (FC) [6] | fold change (FC) [7] | fold change (FC) [8] | fold change (FC) [9] | fold change (FC) [10] |
| --- | --- | --- | --- | --- | --- | --- | --- | --- | --- | --- |
| C[C@H](Cc1nncn1C)c1cc(N[C@@H](C)CO)nc(N2Cc3c(cccc3C(F)(F)F)C2=O)c1 | 2.51 | 1.01 | 1.01 | 0.151 | 0.051 | 1.01 | 1.01 | 1.01 | >=1.001 | 0.601 |
| C[C@H](Cc1nncn1C)c1cccc(NC(=O)c2cc(S(C)(=O)=O)cc(C3CC3)n2)c1 | 1.01 | 1.01 | 1.01 | >=0.201 | 0.101 | <=1 | 1.01 | 1.01 | >=1.001 | 0.801 |
| Cc1cc(C(=O)Nc2cccc([C@H](C)Cc3nncn3C)c2)nc2ccnn12 | 5 | 1.01 | 1.01 | >=0.201 | 0.101 | 1.31 | 1.01 | 1.01 | >=1.001 | 0.601 |
| Cc1ccc(C(=O)Nc2cccc([C@H](C)Sc3nncn3C)c2)nc1C | 2.51 | 2.51 | 1.01 | >=0.201 | <=0.05 | 1.31 | 1.01 | <=1 | 0.601 | <=0.6 |
| Cn1cnnc1[C@@H]1C[C@@H]1c1cccc(N2Cc3c(cc(C#N)cc3C(F)(F)F)C2=O)c1 | 2.51 | 1.01 | 1.01 | 0.101 | <=0.05 | 1.01 | 1.01 | 1.01 | 0.801 | 0.601 |
| CC(Cc1nncn1C)c1cc(C2CCC2)cc(N2Cc3c(cccc3C(F)(F)F)C2=O)c1 (stereo not given) | 1.01 | 1.01 | 1.01 | 0.051 | 0.051 | 1.01 | 1.01 | 1.01 | 0.801 | 0.601 |
| CC(Sc1nncn1C)c1cc(F)cc(N2Cc3c(cccc3C(F)(F)F)C2=O)c1 (stereo not given) | 1.01 | 1.01 | 1.01 | 0.051 | <=0.05 | 1.01 | <=1 | <=1 | 0.601 | 0.801 |
| C[C@H](Cc1nncn1C)c1cccc(N2Cc3c(Br)cccc3C2=O)c1 | >=7.5 | 5 | 2.51 | >=0.201 | >=0.201 | 1.51 | 1.31 | 1.01 | 0.801 | 0.801 |
| C[C@H](Sc1nncn1C)c1cccc(N2Cc3c(cccc3C(F)(F)F)C2=O)c1 | 1.01 | <=1 | <=1 | <=0.05 | <=0.05 | 1.01 | 1.01 | <=1 | 0.801 | 0.601 |
| C[C@H](Sc1nncn1C)c1cccc(NC(=O)c2cccc(S(C)(=O)=O)n2)c1 | 1.01 | 1.01 | <=1 | <=0.05 | <=0.05 | 1.01 | 1.01 | 1.01 | <=0.6 | <=0.6 |
| COc1cc(C(=O)Nc2cccc([C@H](C)Sc3nncn3C)c2)nc(C(F)(F)F)c1 | 5 | 2.51 | 2.51 | >=0.201 | 0.051 | >=1.76 | 1.51 | 1.01 | 0.801 | 0.801 |
| C[C@H](Cc1nncn1C)c1cccc(NC(=O)c2nc3c(C4CC4)cccc3[nH]2)c1 | 2.51 | 1.01 | 1.01 | >=0.201 | 0.051 | 1.01 | 1.01 | 1.01 | 0.801 | 0.601 |
| C[C@H](Cc1nncn1C)c1cccc(NC(=O)c2cc(C(F)(F)F)n[nH]2)c1 | 1.01 | 1.01 | 1.01 | 0.101 | 0.051 | 1.01 | 1.01 | 1.01 | 0.601 | 0.601 |
| C[C@H](Sc1nncn1C)c1ccnc(NC(=O)c2cc(Cl)cc(C(F)(F)F)n2)c1 | <=1 | 1.01 | 1.01 | <=0.05 | <=0.05 | <=1 | 1.01 | 1.01 | 0.601 | <=0.6 |
| Cc1conc1CC(C)c1cccc(N2Cc3c(cccc3C(F)(F)F)C2=O)c1 (stereo not given) | 1.01 | 1.01 | 1.01 | 0.051 | <=0.05 | 1.01 | 1.01 | 1.01 | 0.801 | 0.601 |
| CC(C)c1cccc(C(=O)Nc2cccc([C@H](C)Sc3nncn3C)c2)n1 | >=7.5 | 2.51 | 2.51 | <=0.05 | <=0.05 | 1.01 | 1.01 | 1.01 | 0.801 | <=0.6 |
| C[C@H](Sc1nncn1C)c1cccc(NC(=O)c2cc(C(=O)N3C[C@H](O)C[C@@H]3C)ccn2)c1 | >=7.5 | >=7.5 | >=7.5 | <=0.05 | <=0.05 | 1.01 | 1.01 | 1.01 | 0.601 | <=0.6 |
| COc1nc(C(=O)Nc2cccc([C@H](C)Sc3nncn3C)c2)cc2ccccc12 | >=7.5 | 5 | 2.51 | 0.051 | <=0.05 | 1.01 | 1.01 | <=1 | 0.801 | <=0.6 |
| C[C@H](Sc1nncn1C)c1cccc(NC(=O)c2cccc(C(C)(F)F)n2)c1 | 2.51 | <=1 | <=1 | 0.151 | <=0.05 | >=1.76 | 1.51 | 1.01 | >=1.001 | 0.801 |
| C[C@H](Cc1nncn1C)c1ccnc(N2Cc3c(cccc3C(F)(F)F)C2=O)c1 | 1.01 | <=1 | <=1 | <=0.05 | <=0.05 | 1.31 | 1.01 | 1.01 | <=0.6 | <=0.6 |
| C[C@H](Cc1nncn1C)c1cccc(NC(=O)c2cn3ccnc3cn2)c1 | 1.01 | 1.01 | 1.01 | 0.101 | 0.051 | 1.01 | 1.01 | <=1 | 0.801 | 0.601 |
| C[C@H](Cc1nncn1C)c1cccc(NC(=O)c2cc(C(=O)N3C[C@@H](O)[C@H](F)C3)ccn2)c1 | 2.51 | 1.01 | <=1 | >=0.201 | 0.151 | 1.31 | 1.01 | <=1 | 0.801 | 0.601 |
